The record followed here is patent US9303069B2, “Peptides for treating cancer” (University of Mississippi Medical Center, priority 2014, dated 2016).

In one assay the test system is MDA-MB-468 tumors. The experiment in a line: In vivo efficacy on established MDA-MB-468 tumors. Set-up: species or system mice. As to conditions: day 12; IRIS peptide 10 mg/kg i.t.; combination at half the concentrations. The method, then: Nude 6-8 weeks female mice were injected with 2×10^6 of MDA-MB-468 cells in the 2nd left and 4th right mammary fat pads. When all tumors reached ˜0.1 cm^3 in volume, mice were divided into four groups, one received vehicles (i.e. DMSO injected intraperitoneally [i.p.] and scrambled peptide injected directly into tumors [i.t.]), another received paclitaxel (10 mg/kg, i.p.), the third received IRIS peptide at (10 mg/kg, i.t.), and the last received paclitaxel and IRIS peptide at half the concentrations, injected as above. Drugs were delivered every third day for total of four injections.
In Vivo efficacy of BRCA1-IRIS-inhibitory peptide. Six to eight week old female athymic SCID mice were injected in the second right and the fourth left mammary gland with 2.5×10^6 of MDAMB468 cells. Tumor growth was followed daily until tumors reached 100 mm^3. At this time mice were randomly grouped into four different groups that were injected: a) with DMSO (i.p.) and scrambled peptide (10 mg/kg) intra-tumoral (i.t.), b) injected with IRIS peptide (10 mg/kg, i.t.), c) injected with paclitaxel (10 mg/kg, i.p.), d) injected with IRIS peptide (5 mg/kg, i.t.), and paclitaxel (5 mg/kg, i.p.). […] Change in tumor volume was measured to monitor the efficacy of the treatments using caliper and is represented as percentage of volume at day 0 of treatment. […]

Assay [1] relates to BRCA1-IRIS, TrkB, ErbB2, AKT, p-AKT, p-FOXO, Cyclin D1, Bcl-2 and survivin. The experiment in a line: Expression of growth and survival proteins in HOSE and HOSE/IRIS cells (Western). In kind it is cell-based, human. As to conditions: IRIS peptide 5 μM, cisplatin 10 μM, combination 2.5 μM IRIS peptide + 5 μM cisplatin. An excerpt: HOSE cells overexpressing IRIS show a higher degree of resistance to cisplatin than HOSE cells (compare blue to black line in FIG. 30).

The subject of assay [2] is HME/IRIS, MDA-MB-231 and MDA-MB-468 cells. The experiment in a line: Acini formation in matrigel-coated wells, breast cell lines. In kind it is cell-based, human. The following applies: day 10; peptide added every third day. An excerpt: Next, it was considered whether BRCA1-IRIS depletion or inactivation could impact the aggressive behavior in breast cancer cell lines. BRCA1-IRIS silenced HME, HME/IRIS, MDA-MB-231 and MDA-MB-468 cells were layered on matrigel-coated wells. Moreover, parental cell lines were layered on the matrigel and grown in the presence of scrambled or IRIS peptide (added every third day). […] On day 10, HME acini became slightly bigger but remained round (FIG. 89, 1st column and FIG. 90). Acini formed by HME/IRIS, MDA-MB-231 and MDA-MB-468 were large/non-round on day 10 (FIG. 89, 1st column and FIGS. 90 and 91). BRCA1-IRIS depletion (FIG. 89, 2nd column and FIG. 91) or inactivation (FIG. 89, 3rd column and Suppl. FIG. 91) reverted this phenotype back to near normal “small/round” acini. Quantitatively, BRCA1-IRIS overexpression led to >3-fold increase in HME cells aggressiveness, and its depletion or inactivation reduced that phenotype in tumor cells by >3 fold (FIG. 90 and FIG. 91).

In another assay the test system is caspase 3/7. The experiment in a line: Cleaved / activated caspase 3/7 in MDA-MB-231 and MDA-MB-468 cells. As to conditions: increasing concentrations of IRIS peptide. Format: cell-based, human. The method, then:
To assess whether BRCA1-IRIS inactivation can sensitize TNBC cells to lower paclitaxel concentrations, MDA-MB-231 and MDA-MB-468 were exposed to 1 μM of paclitaxel 0, 1, 2, 5 and 10 μM of IRIS peptide for 24 hours. […] Perhaps more importantly, in the presence of only 1 μM of paclitaxel, the IC50 of IRIS peptide was reduced to <2 μM in both cell lines (dark color lines in FIG. 85).

Assay [3] relates to MDA-MB-231 and MDA-MB-468 cells. Nature of the assay: Invasion assay, matrigel coated Boyden chambers, TNBC cells. The following applies: peptide added every 3rd day. In kind it is cell-based, human. An excerpt: To study invasion in vitro, matrigel coated Boyden chambers were layered with MDA-MB-231 or MDA-MB-468 cells expressing shcontrol of shIRIS expressing cells, also parental cells were layered and grown in the presence of scrambled or IRIS peptide (added every 3rd day). To migrate to the lower side of the chamber or the bottom well, cells must first digest the matrigel. Four days later, a significant number of control treated cells invaded the matrigel and migrated to the lower side of the chambers (FIG. 95, 1st column and FIG. 96) and the bottom well (FIG. 97 and FIG. 98, 1st column) in both cell lines. […] Quantitatively, BRCA1-IRIS silencing or inactivation reduced the invasive/migratory ability of these TNBC cells by ˜100 fold (FIG. 96 and FIG. 97).
Cell Invasion assay. Growth reduced BD Matrigel™ invasion chamber (24 well plate, 8.0 μm, BD BioCoat™) was used to study the invasion ability of control shRNA and BRCA1-IRIS shRNA expressing MDAMB231 cells. Cells (5×10^3) in complete medium (500 μl) were seeded on the upper compartment, and the lower compartment was filled with 750 μl of complete growth medium. […] Cells invaded into the lower side of the membrane as well as those migrate to the bottom well were stained with Crystal Violet, visualized under microscope, photographed and counted. […]

Entries after “also recorded” stand apart in the source; their conditions may differ. Ends that are not written are not given here.

Take “RRIRPRPPRLPRPRPRPLPFPRPGIGTRFLCLPQSIYRSELNVYAFGEHILQISKYS [IRIS peptide]”: in the assay on MDA-MB-468 tumors, the “tumor size as % of original size (at day 0)” value was about 75%. Also, the “expression of BRCA1-IRIS, TrkB, ErbB2, AKT, p-AKT, p-FOXO, Cyclin D1, Bcl-2 and survivin” value in assay [1] was “significant decrease”. In addition, in assay [2], the “reduction of aggressive (large/non-round) acini phenotype in tumor cells” value is over 3 fold. Further, in the assay with caspase 3/7, the “cleaved / activated caspase 3/7” value was “gradual increase in activated caspase 3/7; also recorded: increase cleaved caspase 3/7 in both cell lines”. Besides, the “reduction of invasive/migratory ability” value in assay [3] is recorded as about 100 fold.
